Results from patent US11306101B2 (Celgene Corporation, priority 2019, dated 2022).

Biological target: T1, CK1α (Homo sapiens, UniProt P48729+Q96SW2)
T1 construct: expressed in transfected cells
Test: CK1α ePL degradation assay in MDS-L cells
Format: cell-based
Settings: MDS-L cells expressing ePL-tagged CK1α; for DC50: concentration giving 50% CK1α degradation vs DMSO control; for Y: lowest measured CK1α level normalized to DMSO control
Experimental: The following is an example of an assay that can be used to determine the CK1α degradation activity of Isoindolinone Carboxamide Compounds in a cell line, for example, the MDS-L cell line.
Compounds were dispensed by an acoustic dispenser (ATS acoustic transfer system from EDC Biosystems) into a 384-well in a 10 point dose-response curve using 3-fold dilutions starting at 10 μM and going down to 0.0005 μM in DMSO. […] Assay plates were incubated at 37° C. with 5% CO2 for the indicated times. At the different time points, 25 μL of the InCELL Hunter™ Detection Reagent Working Solution (catalog number 96-0002, DiscoverX, Fremont, Calif.) was added to each well and incubated at RT for 30 min protected from light. After 30 min, luminescence was read on a PHERAstar luminometer (BMG LABTECH, Cary, N.C.).
CK1α levels in compound-treated wells were normalized to that of DMSO control and expressed as percent of control (PoC) (y).
The lowest measured CK1α level normalized to DMSO control in response to compound treatment, termed Y value, was used to characterize the compound-mediated CK1α degradation efficiency.

T1 sequence (P48729 whole entry): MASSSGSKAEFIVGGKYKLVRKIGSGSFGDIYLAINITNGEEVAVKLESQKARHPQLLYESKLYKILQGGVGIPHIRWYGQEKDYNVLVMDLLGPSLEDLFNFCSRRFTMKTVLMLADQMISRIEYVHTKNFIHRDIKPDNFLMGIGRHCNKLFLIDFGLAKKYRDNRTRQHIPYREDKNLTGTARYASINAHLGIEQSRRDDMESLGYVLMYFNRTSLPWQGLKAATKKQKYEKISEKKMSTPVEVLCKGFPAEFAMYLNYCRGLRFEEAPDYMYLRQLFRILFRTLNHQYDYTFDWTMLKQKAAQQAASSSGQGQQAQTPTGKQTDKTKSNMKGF
T1 sequence (Q96SW2 whole entry): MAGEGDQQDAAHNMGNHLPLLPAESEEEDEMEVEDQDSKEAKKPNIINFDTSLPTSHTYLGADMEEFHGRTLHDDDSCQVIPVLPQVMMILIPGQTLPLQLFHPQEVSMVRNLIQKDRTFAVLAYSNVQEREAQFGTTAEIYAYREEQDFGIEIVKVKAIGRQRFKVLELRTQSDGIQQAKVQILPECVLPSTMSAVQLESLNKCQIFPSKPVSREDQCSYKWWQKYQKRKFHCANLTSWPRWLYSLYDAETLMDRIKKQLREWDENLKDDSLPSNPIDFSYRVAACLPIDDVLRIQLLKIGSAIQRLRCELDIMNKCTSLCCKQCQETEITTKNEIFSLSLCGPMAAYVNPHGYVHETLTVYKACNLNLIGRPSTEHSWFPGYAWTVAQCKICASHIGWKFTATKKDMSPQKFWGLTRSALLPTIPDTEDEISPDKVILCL
T1 sequence (Q16531 whole entry partner): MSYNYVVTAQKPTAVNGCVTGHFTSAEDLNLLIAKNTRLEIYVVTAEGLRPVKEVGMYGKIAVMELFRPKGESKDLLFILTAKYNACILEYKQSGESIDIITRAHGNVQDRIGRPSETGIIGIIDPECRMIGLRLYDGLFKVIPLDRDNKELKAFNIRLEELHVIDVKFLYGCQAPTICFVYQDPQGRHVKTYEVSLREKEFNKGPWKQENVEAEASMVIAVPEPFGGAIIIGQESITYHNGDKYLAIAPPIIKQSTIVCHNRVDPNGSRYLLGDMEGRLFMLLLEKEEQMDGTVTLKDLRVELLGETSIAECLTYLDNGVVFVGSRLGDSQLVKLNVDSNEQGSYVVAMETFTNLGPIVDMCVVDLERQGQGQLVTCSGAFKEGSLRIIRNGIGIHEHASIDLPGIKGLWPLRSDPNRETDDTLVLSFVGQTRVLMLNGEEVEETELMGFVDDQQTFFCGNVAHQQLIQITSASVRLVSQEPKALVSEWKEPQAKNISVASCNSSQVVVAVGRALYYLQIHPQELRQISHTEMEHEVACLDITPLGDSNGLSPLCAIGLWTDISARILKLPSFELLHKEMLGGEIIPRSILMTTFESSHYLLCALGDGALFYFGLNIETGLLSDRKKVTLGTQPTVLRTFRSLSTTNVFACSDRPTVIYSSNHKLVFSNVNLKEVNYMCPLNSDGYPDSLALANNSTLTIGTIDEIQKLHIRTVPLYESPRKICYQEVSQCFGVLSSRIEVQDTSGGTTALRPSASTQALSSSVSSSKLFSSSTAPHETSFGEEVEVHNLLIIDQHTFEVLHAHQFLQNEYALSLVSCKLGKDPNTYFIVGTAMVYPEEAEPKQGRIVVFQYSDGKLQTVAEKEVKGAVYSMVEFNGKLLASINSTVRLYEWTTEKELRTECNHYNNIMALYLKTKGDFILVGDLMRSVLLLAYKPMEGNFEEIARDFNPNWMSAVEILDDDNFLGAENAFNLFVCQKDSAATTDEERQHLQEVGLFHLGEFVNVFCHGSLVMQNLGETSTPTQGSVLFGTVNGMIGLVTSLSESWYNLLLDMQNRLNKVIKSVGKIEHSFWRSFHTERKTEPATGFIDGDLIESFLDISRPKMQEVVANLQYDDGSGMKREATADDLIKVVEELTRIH

| SMILES | DC50 [nM] | Y |
| --- | --- | --- |
| O=C1CCC(N2Cc3cc(C(=O)N[C@H](c4ccc(F)cc4)C(F)(F)F)c(F)cc3C2=O)C(=O)N1 (stereo partly drawn) [Example 92, 2-(2,6-dioxopiperidin-3-yl)-6-fluoro-1-oxo-N-((R)-2,2,2-trifluoro-1-(4-fluorophenyl)ethyl)isoindoline-5-carboxamide] | 100 to 500 | ** (a Y value (shown as**) of 20%<Y≤35%) |
| O=C1CCC(N2Cc3cc(C(=O)N[C@H](c4ccc(O)cc4)C(F)(F)F)ccc3C2=O)C(=O)N1 (stereo partly drawn) [Example 101, 2-(2,6-dioxopiperidin-3-yl)-1-oxo-N-((R)-2,2,2-trifluoro-1-(4-hydroxyphenyl)ethyl)isoindoline-5-carboxamide] | < 100 | * (a Y value (shown as *) of 0<Y≤20%) |
| C[C@H](NC(=O)c1cc2c(cc1F)C(=O)N(C1CCC(=O)NC1=O)C2)c1ccccc1 (stereo partly drawn) [Example 85, 2-(2,6-dioxopiperidin-3-yl)-6-fluoro-1-oxo-N-((S)-1-phenylethyl)isoindoline-5-carboxamide] | 500 to 1000 | *** (a Y value (shown as***) of 35%<Y<50%) |
| O=C1CCC(N2Cc3cc(C(=O)N[C@H](c4cccc(Cl)c4)C(F)(F)F)ccc3C2=O)C(=O)N1 (stereo partly drawn) [Example 43, N-((R)-1-(3-chlorophenyl)-2,2,2-trifluoroethyl)-2-(2,6-dioxopiperidin-3-yl)-1-oxoisoindoline-5-carboxamide] | < 100 | * (a Y value (shown as *) of 0<Y≤20%) |
| O=C1CCC(N2Cc3cc(C(=O)N[C@H](c4ccc(F)cn4)C(F)(F)F)ccc3C2=O)C(=O)N1 (stereo partly drawn) [Example 76, 2-(2,6-dioxopiperidin-3-yl)-1-oxo-N-((R)-2,2,2-trifluoro-1-(5-fluoropyridin-2-yl)ethyl)isoindoline-5-carboxamide] | < 100 | ** (a Y value (shown as**) of 20%<Y≤35%) |
| C[C@H](NC(=O)c1ccc2c(c1)CN(C1CCC(=O)NC1=O)C2=O)c1cccnc1 (stereo partly shown) [Example 19] | 100 to 500 | ** (a Y value (shown as**) of 20%<Y≤35%) |
| COc1ccc([C@@H](NC(=O)c2ccc3c(c2)CN(C2CCC(=O)NC2=O)C3=O)C(F)(F)F)cc1 (stereo partly drawn) [Example 35, 2-(2,6-dioxopiperidin-3-yl)-1-oxo-N-((R)-2,2,2-trifluoro-1-(4-methoxyphenyl)ethyl)isoindoline-5-carboxamide] | < 100 | * (a Y value (shown as *) of 0<Y≤20%) |
| O=C1CCC(N2Cc3cc(C(=O)N[C@H](c4ccc(F)cc4C(F)(F)F)C(F)(F)F)ccc3C2=O)C(=O)N1 (stereo partly drawn) [Example 77, 2-(2,6-dioxopiperidin-3-yl)-1-oxo-N-((R)-2,2,2-trifluoro-1-(4-fluoro-2-(trifluoromethyl)phenyl)ethyl)isoindoline-5-carboxamide] | < 100 | * (a Y value (shown as *) of 0<Y≤20%) |
| O=C1CCC(N2Cc3c(ccc(C(=O)N[C@H](c4ccccc4F)C(F)(F)F)c3F)C2=O)C(=O)N1 (stereo partly drawn) [Example 100, 2-(2,6-dioxopiperidin-3-yl)-4-fluoro-1-oxo-N-((R)-2,2,2-trifluoro-1-(2-fluorophenyl)ethyl)isoindoline-5-carboxamide] | 100 to 500 | * (a Y value (shown as *) of 0<Y≤20%) |
| O=C1CCC(N2Cc3cc(C(=O)N[C@H](c4cccc(C(F)(F)F)c4)C(F)(F)F)c(F)cc3C2=O)C(=O)N1 (stereo partly drawn) [Example 90, 2-(2,6-dioxopiperidin-3-yl)-6-fluoro-1-oxo-N-((R)-2,2,2-trifluoro-1-(3-(trifluoromethyl)phenyl)ethyl)isoindoline-5-carboxamide] | 100 to 500 | ** (a Y value (shown as**) of 20%<Y≤35%) |
| O=C1CC[C@H](N2Cc3cc(C(=O)N[C@H](c4ccccc4)C(F)(F)F)ccc3C2=O)C(=O)N1 [Example 61, 2-((S)-2,6-dioxopiperidin-3-yl)-1-oxo-N-((R)-2,2,2-trifluoro-1-phenylethyl)isoindoline-5-carboxamide] | < 100 | * (a Y value (shown as *) of 0<Y≤20%) |
| O=C1CCC(N2Cc3cc(C(=O)N[C@H](c4ccc(Cl)cc4)C(F)(F)F)c(F)cc3C2=O)C(=O)N1 (stereo partly drawn) [Example 91, N-((R)-1-(4-chlorophenyl)-2,2,2-trifluoroethyl)-2-(2,6-dioxopiperidin-3-yl)-6-fluoro-1-oxoisoindoline-5-carboxamide] | < 100 | ** (a Y value (shown as**) of 20%<Y≤35%) |

Next, values leading:

| DC50 [nM] | Y | SMILES |
| --- | --- | --- |
| 100 to 500 | ** (a Y value (shown as**) of 20%<Y≤35%) | O=C1CCC(N2Cc3c(ccc(C(=O)N[C@H](c4cccc(OC(F)(F)F)c4)C(F)(F)F)c3F)C2=O)C(=O)N1 (stereo partly drawn) [Example 120, 2-(2,6-dioxopiperidin-3-yl)-4-fluoro-1-oxo-N-((R)-2,2,2-trifluoro-1-(3-(trifluoromethoxy)phenyl)ethyl)isoindoline-5-carboxamide] |
| 100 to 500 | ** (a Y value (shown as**) of 20%<Y≤35%) | CC(C)[C@@H](NC(=O)c1ccc2c(c1)CN(C1CCC(=O)NC1=O)C2=O)c1ncccc1Cl (stereo partly drawn) [Example 171, N-((R)-1-(3-chloropyridin-2-yl)-2-methylpropyl)-2-(2,6-dioxopiperidin-3-yl)-1-oxoisoindoline-5-carboxamide] |
| 100 to 500 | ** (a Y value (shown as**) of 20%<Y≤35%) | O=C1CCC(N2Cc3c(ccc(C(=O)N[C@H](c4cccc(Cl)c4)C(F)(F)F)c3F)C2=O)C(=O)N1 (stereo partly drawn) [Example 107, N-((R)-1-(3-chlorophenyl)-2,2,2-trifluoroethyl)-2-(2,6-dioxopiperidin-3-yl)-4-fluoro-1-oxoisoindoline-5-carboxamide] |
| < 100 | * (a Y value (shown as *) of 0<Y≤20%) | O=C1CC[C@H](N2Cc3cc(C(=O)N[C@H](c4ncc(Cl)cc4Cl)C(F)(F)F)ccc3C2=O)C(=O)N1 [Example 207, N-((R)-1-(3,5-dichloropyridin-2-yl)-2,2,2-trifluoroethyl)-2-((S)-2,6-dioxopiperidin-3-yl)-1-oxoisoindoline-5-carboxamide] |
| 500 to 1000 | ** (a Y value (shown as**) of 20%<Y≤35%) | O=C1CCC(N2Cc3cc(C(=O)N[C@@H](CC(F)(F)F)c4ccc(Cl)cc4)ccc3C2=O)C(=O)N1 (stereo partly drawn) [Example 149, N-((S)-1-(4-chlorophenyl)-3,3,3-trifluoropropyl)-2-(2,6-dioxopiperidin-3-yl)-1-oxoisoindoline-5-carboxamide] |
| 100 to 500 | ** (a Y value (shown as**) of 20%<Y≤35%) | CC[C@@H](NC(=O)c1ccc2c(c1)CN(C1CCC(=O)NC1=O)C2=O)c1ccccc1 (stereo partly shown) [Example 118] |
| 100 to 500 | ** (a Y value (shown as**) of 20%<Y≤35%) | O=C1CCC(N2Cc3cc(C(=O)N[C@H](CC(F)(F)F)c4ccccc4)ccc3C2=O)C(=O)N1 (stereo partly drawn) [Example 187, 2-(2,6-dioxopiperidin-3-yl)-1-oxo-N-((R)-3,3,3-trifluoro-1-phenylpropyl)isoindoline-5-carboxamide] |
| < 100 | * (a Y value (shown as *) of 0<Y≤20%) | O=C1CCC(N2Cc3cc(C(=O)N[C@H](c4ccc(CN5CCCC5)cc4)C(F)(F)F)ccc3C2=O)C(=O)N1 (stereo partly drawn) [Example 180, 2-(2,6-dioxopiperidin-3-yl)-1-oxo-N-((R)-2,2,2-trifluoro-1-(4-(pyrrolidin-1-ylmethyl)phenyl)ethyl)isoindoline-5-carboxamide] |
